Data as given in US20250171496A1, “FUSION PEPTIDE FOR REGULATING ACTIVATION OF MAM AND USE THEREOF” (UIF (University Industry Foundation), Yonsei University, priority 2023, published 2025).
Where no end group is shown, it is not given here.

Columns and labels:
[1] = system: Hela cells; test: SPLICS (ER-mitochondria split-GFP) proximity assay; assay type: cell-based; conditions: Hela cells transfected with SPLICS vector, 10 mM EtOH, peptide 20 μM, 1 hour, vs control (DW)
Text: To this end, MAM regulatory activity was verified using the SPLICS (ER-mitochondria split-GFP) system, which allows observation of the proximity between intracellular organelles through fluorescence emission. The SPLICS system is a system that can efficiently image the proximity of intracellular organelles based on the principle that split-GFP fluorescence is emitted when two organelles are within approximately 10 to 40 nm of each other. As the two organelles approach, complementation of GFP occurs, resulting in fluorescence at the junction. It is to be noted that increased contact between ER and mitochondria may lead to cellular stress and dysfunction.
First, to observe the change in the distance between the ER and mitochondria due to treatment with the fusion peptides, Hela cells were transfected with the SPLICS vector. Afterwards, the HeLa cells were treated with the fusion peptides and the area (%) of GFP fluorescence relative to the total area per cell was measured. […] That is to say, it was observed from the decrease in green fluorescence in the groups treated with the fusion peptides of the present disclosure that the two organelles were moving apart from each other.

[2] = system: ApoE knockout mice; test: Atherosclerosis animal model (high-cholesterol diet, ApoE knockout mice); assay type: in vivo; conditions: 50 mg/kg intraperitoneally every 2 days for 8 weeks
Description: Animal experiment was performed in accordance with the guidelines approved by the Institutional Animal Care and Use Committee of Yonsei University (IACUC-A-202404-1847-02). 6-week-old male ApoE knockout B6.KOR/StmSlc-Apoeshl mice were housed in a specific pathogen-free system with a 12-hour light-dark cycle with free access to food and water, and randomly divided into three groups (control, positive control, and test groups). Then, the sample was injected intraperitoneally to the control group (vehicle), the positive control group (CTS (cryptotanshinone), 20 mg/kg), and the test group (peptide, 50 mg/kg) once every two days for 8 weeks while feeding the mice with a high-cholesterol diet until the end of the experiment (for 8 weeks).
After sacrificing the mice, PBS perfusion was performed through the left ventricle, and the heart, artery, and blood were obtained. The artery was cut along the bifurcation of the iliac artery, spread out, fixed with pins, and fixed in 10% formaldehyde for 16 hours. After staining with Oil-Red-O for 16 hours, the samples were washed with PBS and images were obtained using a microscope (NS-6T, China).
The fusion peptide 4 (50 mg/kg) was injected intraperitoneally every 2 days for 8 weeks into an animal model of atherosclerosis (high-cholesterol diet, ApoE knockout mice).

[3] = system: HUVEC cells; test: MTT assay (cell proliferation); assay type: cell-based, human; conditions: 0-300 μM, up to 72 hours
Description: Human umbilical vein endothelial cells (HUVECs) were cultured in EBM-2 medium supplemented with FBS (2%, v/v) and antibiotics. After seeding the cells in a 96-well plate at 3,000 cells/well and culturing the same, they were treated with the prepared fusion peptides on the next day at concentrations of 0, 100, 200, and 300 μM. After 0, 24, 48, and 72 hours, MTT solution (2 mg/mL) was treated at a concentration of 0.4 mg/mL. After culturing for 3 hours, the medium was removed and the cells were treated with DMSO. Then, fluorescence was measured at 540 nm.
Afterwards, 3-[4,5-dimethylthiazol-2-yl]-2,5-diphenyltetrazolium bromide (MTT) assay, which allows observation of cell proliferation by fluorescence, was performed to confirm the optimal concentration of the fusion peptide 4 in the HUVEC cells.

Substance	GFP fluorescence signal (area of GFP fluorescence relative to the total area per cell), SPLICS [1]	body weight [2]	cell proliferation (MTT) [3]
YARVRRRGPRR-DTETKME (YARVRRRGPRRDTETKME) [fusion peptide 3]	significant decrease in fluorescence signals	–	–
YARVRRRGPRR-FSTAADGQTQ (YARVRRRGPRRFSTAADGQTQ) [fusion peptide 1]	significant decrease in fluorescence signals	–	–
YARVRRRGPRRRSIYYLGIGPT [fusion peptide 4, YARVRRRGPRR-RSIYYLGIGPT]	–	did not affect the body weight	no inhibition of cell proliferation was observed even at concentrations of 100-200 μM
YARVRRRGPRR-GGG-FSTAADGQTQ (YARVRRRGPRRGGGFSTAADGQTQ) [fusion peptide 2, CPP Hph-1 linked to Peptide 2 (GGG-…), GRP75 motif]	significant decrease in fluorescence signals	–	–
